What is called solubility is the dissolved amount per volume that the medium holds. Low readings indicate a poorly soluble substance, high ones a readily soluble substance.

The results in this text go back to patent US20120122820A1, “PRODRUGS AND THE USE THEREOF” (Bayer Schering Pharma Aktiengesellschaft, priority 2007, published 2012).

The structures appear in SMILES notation. Values after ≈ are worked out from the molar mass of the structure shown. Counter-ions that a name gives are not always drawn.

Data set [1] concerns heart rate of anesthetized rats. The data set is described as follows: Influence on the heart rate of anesthetized rats. Type of data set: in vivo. The settings on record: maximum decrease in the first 30 min after i.v. bolus of 100 μg/kg of (A) or equivalent dosages; anesthetized male Wistar rats. As for the experimental part: Male Wistar rats with a body weight above 250 g are employed. In the night before the experiment, the animals receive no feed but still have free access to drinking water. Preparation and investigations are carried out under Trapanal® anesthesia (100 mg/kg i.p.). Injection and infusion take place through a catheter in the jugular vein, and the blood pressure is recorded via a catheter in the femoral artery (transducer: Braun, Melsungen). After the preparation, the animals are connected to a continuous infusion of physiological saline solution to compensate fluid losses. Test substance or placebo solution are administered intravenously as bolus after an equilibration time of about 1 h. Heart rate and arterial blood pressure are recorded during the equilibration and over a period of at least 30 min after the bolus injection with the aid of a digital evaluation program.
Table 5 lists the maximum heart rate decrease in the first 30 min after an i.v. bolus of 100 μg/kg of the active substance (A) or of equivalent dosages of representative exemplary embodiments: […]

Data set [2] can be described thus: Stability in buffer at various pH values. It is filed as physicochemical. As for the experimental part: 0.3 mg of the test substance is weighed into a 2 ml HPLC vial and 0.5 ml of acetonitrile or acetonitrile/DMSO (9:1) is added. The substance is dissolved by putting the sample vessel in an ultrasonic bath for about 10 seconds. Then 0.5 ml of the respective (buffer) solution is added, and the sample is again treated in the ultrasonic bath.
• pH 4: 1 liter of Millipore water is adjusted to pH 4.0 with 1 N hydrochloric acid; • pH 5: 0.096 mol of citric acid and 0.2 mol of sodium hydroxide ad 1 liter of water; • pH 7.4: 90.0 g of sodium chloride, 13.61 g of potassium dihydrogen phosphate and 83.35 g of 1 N sodium hydroxide solution are made up to 1 liter with water; this solution is then further diluted 1:10 with Millipore water. • pH 8: 0.013 mol of borax and 0.021 mol of hydrochloric acid ad 1 liter of water.
5 μl portions of the sample solution are analyzed by HPLC for their content of unchanged test substance, and of parent substance (A) produced, every hour over a period of 24 hours at 37° C. The percentage areas of the appropriate peaks are used for quantification.
HPLC method for Examples 1-21:
Agilent 1100 with DAD (G1314A), binary pump (G1312A), autosampler (G1329A), column oven (G1316A), thermostat (G1330A); column: Kromasil 100 C18, 60 mm×2.1 mm, 3.5 μm; column temperature: 30° C.; eluent A: water+5 ml of perchloric acid/liter, eluent B: acetonitrile; gradient: 0-1.0 min 98% A, 2% B; 1.0-9.0 min 2% A, 98% B; 9.0-13.0 min 2% A, 98% B; 13.0-13.5 min 98% A, 2% B; 13.5-15.0 min 98% A, 2% B; flow rate: 0.75 ml/min; UV detection: 210 nm.
HPLC method for Examples 22-40:
The ratios of the peak areas (F) at the respective time points in relation to the peak areas at the starting time are shown in Table 3 for representative exemplary embodiments: […]

Data set [3] is described as follows: i.v. pharmacokinetics in Wistar rats. Type of data set: in vivo. The settings on record: after i.v. bolus administration, male Wistar rats. As to the method:
On the day before administration of the substance, a catheter for obtaining blood is implanted in the jugular vein of the experimental animals (male Wistar rats, body weight 200-250 g) under Isofluran® anesthesia.
On the day of the experiment, a defined dose of the test substance is administered as solution into the tail vein using a Hamilton® glass syringe (bolus administration, duration of administration <10 s). Blood samples (8-12 time points) are taken through the catheter sequentially over the course of 24 h after administration of the substance. Plasma is obtained by centrifuging the samples in heparinized tubes. Acetonitrile is added to a defined plasma volume per time point to precipitate proteins. After centrifugation, test substance and, where appropriate, known cleavage products of the test substance in the supernatant are determined quantitatively using a suitable LC/MS-MS method.
The measured plasma concentrations are used to calculate pharmacokinetic parameters of the test substance and of the active ingredient compound (A) liberated therefrom, such as AUC, Cmax, T1/2 (half-life) and CL (clearance).

Data set [4] is described as follows: Determination of the solubility (24 h shaking at room temperature, ultracentrifugation, HPLC). It is filed as physicochemical. The following applies: thermodynamic from solid. As for the experimental part: The test substance is suspended in water or dilute hydrochloric acid (pH 4) [Examples 1-21] or in 5% strength aqueous dextrose solution [Examples 22-40]. This suspension is shaken at room temperature for 24 h. After ultracentrifugation at 224 000 g for 30 min, the supernatant is diluted with DMSO and analyzed by HPLC. A two-point calibration plot of the test compound in DMSO is used for quantification.
Agilent 1100 with DAD (G1315A), quat. pump (G1311A), autosampler CTC HTS PAL, degasser (G1322A) and column thermostat (G1316A); column: Phenomenex Gemini C18, 5 μm, 50 mm×2 mm; temperature: 40° C.; eluent A: water/phosphoric acid pH 2, eluent B: acetonitrile; flow rate: 0.7 ml/min; gradient: 0-0.5 min 85% A, 15% B; ramp 0.5-3 min 10% A, 90% B; 3-3.5 min 10% A, 90% B; ramp 3.5-4 min 85% A, 15% B; 4-5 min 85% A, 15% B.
Agilent 1100 with DAD (G1315A), quat. pump (G1311A), autosampler CTC HTS PAL, degasser (G1322A) and column thermostat (G1316A); column: VDSoptilab Kromasil 100 C18, 3.5 μm, 60 mm×2.1 mm; temperature: 30° C.; eluent A: water+5 ml of perchloric acid/liter, eluent B: acetonitrile; flow rate: 0.75 ml/min; gradient: 0-0.5 min 98% A, 2% B; ramp 0.5-4.5 min 10% A, 90% B; 4.5-6 min 10% A, 90% B; ramp 6.5-6.7 min 98% A, 2% B; 6.7-7.5 min 98% A, 2% B.

The mark [5] stands for this setting: saline or isotonic, 5% strength aqueous dextrose solution.

Take `N#Cc1c(N)nc(SCc2csc(-c3ccc(Cl)cc3)n2)c(C#N)c1-c1ccc(OCCOP(=O)(O)O)cc1` [Example 1, 2-{4-[2-Amino-6-({[2-(4-chlorophenyl)-1,3-thiazol-4-yl]methyl}thio)-3,5-dicyanopyridin-4-yl]-phenoxy}ethyl dihydrogenphosphate]: the Heart rate decrease in data set [1] stood at 16%. Further, in data set [2] (pH 4, 37° C.), the “% test substance after 4 h [F(t = 4 h) × 100/F(t = 0 h)]” value (“% test substance after 4 h” for short) amounted to 100% and the “% test substance after 24 h [F(t = 24 h) × 100/F(t = 0 h)]” value (from here on “% test substance after 24 h”) is 100%. In addition, in data set [2] (pH 8, 37° C.), the “% test substance after 4 h” value is 100% and the “% test substance after 24 h” value came to 100%. Moreover, in data set [3], the “Detectability of the test substance (prodrug) in plasma” value was “no longer detectable in plasma even at the first measurement point”.
Regarding `N#Cc1c(NC(=O)CCCN)nc(SCc2csc(-c3ccc(Cl)cc3)n2)c(C#N)c1-c1ccc(OCCOC(=O)CCCN)cc1` [Example 25, 2-(4-{2-[(4-Aminobutanoyl)amino]-6-({[2-(4-chlorophenyl)-1,3-thiazol-4-yl]methyl}thio)-3,5-di-cyanopyridin-4-yl}phenoxy)ethyl 4-aminobutanoate dihydrochloride], the “% test substance after 4 h” value in data set [2] (pH 4, 37° C.) is on record as 100%; in data set [2] (pH 7.4, 37° C.), 41%. Besides, the “% test substance after 24 h” value is listed as 100% in data set [2] (pH 4, 37° C.) and 4% in data set [2] (pH 7.4, 37° C.). In addition, the solubility at 24 h in data set [4] (setting [5]) came to 730 µg/mL.
Take `N#Cc1c(NC(=O)CCN)nc(SCc2csc(-c3ccc(Cl)cc3)n2)c(C#N)c1-c1ccc(OCCOC(=O)CCN)cc1` [Example 26, 2-{4-[2-(beta-Alanylamino)-6-({[2-(4-chlorophenyl)-1,3-thiazol-4-yl]methyl}thio)-3,5-dicyano-pyridin-4-yl]phenoxy}ethyl beta-alaninate dihydrochloride]: the “% test substance after 4 h” value in data set [2] (pH 4, 37° C.) worked out at 100%; in data set [2] (pH 7.4, 37° C.) it was 11%. The “% test substance after 24 h” value in data set [2] (pH 4, 37° C.) came out at 100%; in data set [2] (pH 7.4, 37° C.) it was 2%. The molecule further had a solubility at 24 h in data set [4] (setting [5]) above 500 µg/mL.
Take `CC(C)[C@H](N)C(=O)OCCOc1ccc(-c2c(C#N)c(NC(=O)CCCN(C)C)nc(SCc3csc(-c4ccc(Cl)cc4)n3)c2C#N)cc1` [Example 37, 2-{4-[2-({[2-(4-Chlorophenyl)-1,3-thiazol-4-yl]methyl}thio)-3,5-dicyano-6-{[4-(dimethylamino)-butanoyl]amino}pyridin-4-yl]phenoxy}ethyl L-valinate bistrifluoracetate]: the “% test substance after 4 h” value was 100% in data set [2] (pH 4, 37° C.) and 97% in data set [2] (pH 7.4, 37° C.). Moreover, the “% test substance after 24 h” value turned out to be 100% in data set [2] (pH 4, 37° C.) and 84% in data set [2] (pH 7.4, 37° C.). In data set [4] (setting [5]), this molecule displayed a solubility at 24 h of 160 µg/mL (≈ 218 µM).
For `N#Cc1c(N)nc(SCc2csc(-c3ccc(Cl)cc3)n2)c(C#N)c1-c1ccc(OCCOC(=O)[C@@H](N)CCCNC(=N)N)cc1` [Example 38, 2-{4-[2-Amino-6-({[2-(4-chlorophenyl)-1,3-thiazol-4-yl]methyl}sulfanyl)-3,5-dicyanopyridin-4-yl]-phenoxy}ethyl L-argininate trihydrochloride], the “% test substance after 4 h” value in data set [2] (pH 4, 37° C.) amounted to 100%; in data set [2] (pH 7.4, 37° C.) it was 100%. Moreover, the “% test substance after 24 h” value in data set [2] (pH 4, 37° C.) turned out to be 100%; in data set [2] (pH 7.4, 37° C.) it was 94%. This molecule also yielded a solubility at 24 h in data set [4] (setting [5]) above 500 µg/mL.
Consider `N#Cc1c(N)nc(SCc2csc(-c3ccc(Cl)cc3)n2)c(C#N)c1-c1ccc(OCCOC(=O)[C@H](N)CCCN)cc1` [Example 39, 2-{4-[2-Amino-6-({[2-(4-chlorophenyl)-1,3-thiazol-4-yl]methyl}sulfanyl)-3,5-dicyanopyridin-4-yl]-phenoxy}ethyl D-ornithinate dihydrochloride], for which, in data set [2] (pH 4, 37° C.), the “% test substance after 4 h” value is given as 100% and the “% test substance after 24 h” value stood at 100%. In data set [2] (pH 7.4, 37° C.), the “% test substance after 4 h” value was 0% and the “% test substance after 24 h” value is 0%. Further, the solubility at 24 h in data set [4] (setting [5]) was above 500 µg/mL.
In the case of `N#Cc1c(N)nc(SCc2csc(-c3ccc(Cl)cc3)n2)c(C#N)c1-c1ccc(OCCOC(=O)[C@@H](N)CN)cc1` [Example 40, 2-{4-[2-Amino-6-({[2-(4-chlorophenyl)-1,3-thiazol-4-yl]methyl}sulfanyl)-3,5-dicyanopyridin-4-yl]-phenoxy}ethyl-3-amino L-alaninate dihydrochloride], in data set [2] (pH 4, 37° C.), the “% test substance after 4 h” value is reported as 99% and the “% test substance after 24 h” value is 94%. Further, in data set [2] (pH 7.4, 37° C.), the “% test substance after 4 h” value was found to be 90% and the “% test substance after 24 h” value worked out at 53%. The molecule further came in with a solubility at 24 h in data set [4] (setting [5]) above 500 µg/mL.
In the case of `N#Cc1c(N)nc(SCc2csc(-c3ccc(Cl)cc3)n2)c(C#N)c1-c1ccc(OCCO)cc1` [compound (A), 2-amino-6-({[2-(4-chlorophenyl)-1,3-thiazol-4-yl]methyl}thio)-4-[4-(2-hydroxy-ethoxy)phenyl]pyridine-3,5-dicarbonitrile, reference compound], the Heart rate decrease in data set [1] worked out at 24%. The solubility at 24 h is below 1 µg/mL in data set [4] (aqueous buffer, dilute hydrochloric acid (pH 4)) and below 0.1 µg/mL in data set [4] (setting [5]).
